A word on the Kd: it is the concentration at which binding is half-saturated. Read a high Kd as weaker binding.

The text below walks through data of US9090659B2, “RHAMM binding peptides” (London Health Sciences Centre Research Inc., priority 2010, dated 2015).

Ends that are not written are not given here. Peptide text beside a SMILES is read from it.

For one test, the system named is ascites-derived human EOC cells. The test is described as follows: Cell viability (alamarBlue) of ascites-derived human EOC cells. Format: cell-based. To be noted: 7 and 0.7 uM, re-dosing everyday up to 6 days; p<0.05. On the procedure: The ability of one RHAMM-binding peptide (SEQ ID NO: 1) to limit the proliferation of patient derived epithelial ovarian cancer tumors and the ability of another RHAMM-binding peptide (SEQ ID NO: 3) to reduce the viability of ascites-derived human EOC cells were examined. In these assays, epithelial ovarian cancer cells (derived from ascites of patients) were plated in a 96-well plate at density 5,000 cells/well and allowed to grow for 24 hours at 37° C. and 5% CO2. Peptides (1 uM and 10 uM) were added to cells on day one and proliferation was measured for 6 days. 1/10th volume of Alamar Blue reagent was added directly to cells in culture medium everyday for six days. Fluorescence was read at 570/590 nm. Data were obtained from mean of two experiments. Cells treated with just DMSO (dimethylsulfoxide) and “no-cell” control samples were included in the experiment.
Primary cells from patient sample EOC were seeded to a 24-well culture dish and 24 hours later treatment was initiated with the RHAMM-binding peptide SEQ ID NO: 3 (7 and 0.7 uM concentrations) or DMSO vehicle control. Re-dosing occurred everyday for up to 6 days and cell viability was assessed by fluorometry using alamarBlue™ reagent (measured in fluorescence units, FU).
(In general: Resazurin is reduced to fluorescent resorufin, in cell work by metabolically active cells.)
In the case of “SEQ ID NO: 3: synthetic αIIIc tubulin CTT peptide containing EEXEEZ motif (SVEAEAEEGEEY)”, the “viability of EOC cells (fluorescence units)” value is on record as “reduced viability”.

For a further test, the target named is T1, RHAMM (Mus musculus, UniProt Q00547).
T1 construct: Profinity eXact tag; made in house; host or cells: E. coli BL21 (D3), plasmid pPAL7-RHAMM
T1 sequence (Q00547 706-766): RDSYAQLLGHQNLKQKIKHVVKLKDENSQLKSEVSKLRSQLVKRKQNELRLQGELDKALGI
The test is described as follows: SPR binding assay for kinetic constants, RHAMM flowed over immobilized peptides (GWC SPRimager II). The conditions noted are these: peptide immobilized on sensor plate; RHAMM 500, 750, 1000 nM; 1:1 Langmuir binding model. As for the experimental part:
After peptide screening, […] system was used to determine binding kinetic constants. Thiol-containing peptides at 1 nM concentration in milliQ water were immobilized on a maleimide-functionalized gold-plated chip for 3 hours. Excess peptides were removed by washing with milliQ water. For binding studies, a series of concentrations (500 nM, 750 nM, and 1000 nM) of RHAMM were injected over the immobilized peptides. After a 15 min dissociation phase, the sensor chip surface was regenerated for the next peptide sample injection, via treatment with two 10 min pulse injections of regenerating buffer (2 M NaCl in HBS-EP, pH 7.4) at […]. Baseline returned to the initial value after the regeneration step, confirming the removal of all bound analytes. Data were analyzed and the corresponding dissociation constants (KD) were obtained via non-linear regression fitting to a Langmuir binding model. In all experiments, reference subtraction was performed using data obtained from reference plate (no peptide) and peptide functionalized plate. The binding of the six peptides deduced in the previous section to RHAMM was quantified. Truncation studies indicate that the CTTs (i.e. the last 12 carboxy-terminal residues of S-peptides), were sufficient to induce MAP-directed microtubule assembly, thus placing a label spaced by a linker moiety on the amino terminus of CTT should not affect the peptide-protein interaction. Peptides were immobilized on the sensor plate and RHAMM was flowed over derivatized surface at different concentrations at a constant flow rate of 100 μL/min. FIG. 4 A depicts the resulting sensograms. Again, each sensograms has been corrected by subtracting each curve from a reference sensorgram (data acquired from the sensorgram without immobilized peptide) in order to account for refractive index differences between running buffer and sample solutions. Experimental sensograms were fitted with curves resulting from a kinetic model for a 1:1 Langmuir binding model. […]
(SPR reads the build-up and loss of mass on a sensor chip optically.)
`C[C@H](NC(=O)[C@H](CCC(=O)O)NC(=O)[C@H](CCC(=O)O)NC(=O)[C@H](CCC(=O)O)NC(=O)[C@H](C)NC(=O)[C@H](CCC(=O)O)NC(=O)[C@H](CCC(=O)O)NC(=O)CNC(=O)[C@H](Cc1ccccc1)NC(=O)[C@H](CC(=O)O)NC(=O)[C@H](CCC(=O)O)NC(=O)[C@@H](N)CCC(=O)O)C(N)=O` [SEQ ID NO: 9] (H-EEDFGEEAEEEA-NH2): the Kd was determined as 32 nM. As for `CC(C)[C@H](N)C(=O)N[C@@H](CCC(=O)O)C(=O)NCC(=O)N[C@@H](CCC(=O)O)C(=O)NCC(=O)N[C@@H](CCC(=O)O)C(=O)N[C@@H](CCC(=O)O)C(=O)N[C@@H](CCC(=O)O)C(=O)NCC(=O)N[C@@H](CCC(=O)O)C(=O)N[C@@H](CCC(=O)O)C(=O)N[C@@H](Cc1ccc(O)cc1)C(N)=O` [SEQ ID NO: 1] (H-VEGEGEEEGEEY-NH2), the Kd was found to be 24 nM.

As for `CSCC[C@H](NC(=O)[C@H](CC(N)=O)NC(=O)[C@H](CO)NC(=O)[C@H](CCC(=O)O)NC(=O)[C@H](C)NC(=O)[C@H](CCC(=O)O)NC(=O)[C@@H](NC(=O)[C@@H](N)Cc1ccccc1)[C@@H](C)O)C(=O)N[C@@H](CC(N)=O)C(=O)N[C@@H](CC(=O)O)C(=O)N[C@@H](CC(C)C)C(=O)N[C@H](C(N)=O)C(C)C` [SEQ ID NO: 14] (H-FTEAESNMNDLV-NH2), binding was characterised by a dissociation constant (Kd) of 30 nM.

In the next test the target is T2, RHAMM (Mus musculus, UniProt Q00547).
T2 construct: Profinity eXact tag; made in house; host or cells: E. coli BL21 (D3), plasmid pPAL7-RHAMM
Put plainly: KD (nM).
Details: not given
The source says: Table printed on a drawing sheet, FIG. 2 B
Head of the field: KD (nM)
The patent's description of the figure: FIG. 2 A illustrate the general structure of (a) unmodified tubulin-derived peptides, (b) tubulin-derived peptides conjugated to N-acetyl cysteine, and (c) tubulin-derived peptides conjugated to fluorescein isothiocyanate.
FIG. 2 B is a table of 17 synthesized tubulin-derived peptides, including peptides derivatized with fluorescein or N-acetyl cysteine, tubulin fragment type, calculated and observed mass spectrometry m/z values (m is representative of molecular or atomic mass and z is representative of the number of elementary charges carried by the ion), percent purity and binding constant Kd. FIG. 2 B discloses SEQ ID NOs: 1, 24-25, 2-3, 26-27, 4-9, 28-29, 10-11, 30-31, 12, 32-33, 13-14, 34-35 and 15-17, respectively, in order of appearance.
FIG. 2 B is a table which describes all 17 peptides prepared for this study. Sequences of 17 synthesized peptides encompass the CTTs of different tubulin subtypes as well as sequences directly flanking α1a- (SEQ ID NOs: 6, 7 and 8) and βIIIa-CTT (SEQ ID NOs: 13 and 14). […]
First copying reader's note: The table is continued on the next sheet (printed: continued on page 4/20).
Where the first naming reader finds the target: patent_title: RHAMM binding peptides
On to `CC(C)[C@H](NC(=O)[C@@H](N)CO)C(=O)N[C@@H](CCC(=O)O)C(=O)N[C@@H](C)C(=O)N[C@@H](CCC(=O)O)C(=O)N[C@@H](C)C(=O)N[C@@H](CCC(=O)O)C(=O)N[C@@H](CCC(=O)O)C(=O)NCC(=O)N[C@@H](CCC(=O)O)C(=O)N[C@@H](CCC(=O)O)C(=O)N[C@@H](Cc1ccc(O)cc1)C(N)=O` [SEQ ID NO. 3 | 3a, Alpha IIIc CTT (439-450)] (H-SVEAEAEEGEEY-NH2; N-terminus assumed), for which the Kd was 331 nM. With `C[C@H](NC(=O)[C@H](CO)NC(=O)[C@@H](N)CC(=O)O)C(=O)N[C@@H](CC(=O)O)C(=O)NCC(=O)N[C@@H](CCC(=O)O)C(=O)N[C@@H](CC(=O)O)C(=O)N[C@@H](CCC(=O)O)C(=O)NCC(=O)N[C@@H](CCC(=O)O)C(=O)N[C@@H](CCC(=O)O)C(=O)N[C@@H](Cc1ccc(O)cc1)C(N)=O` [SEQ ID NO. 2 | 2, Alpha Ia CTT (438-449)] (H-DSADGEDEGEEY-NH2; N-terminus assumed), the Kd was below 1000 nM.

Another test deals with T1, RHAMM. The test is described as follows: SPR-based screening of tubulin-derived peptides against immobilized RHAMM (ProteON XPR36). The format is binding. To be noted: peptides 10 μM injected over immobilized RHAMM. On the procedure: ProteON XPR36 system was used for the selection and ranking of different tubulin derived peptides against RHAMM. For immobilization of RHAMM, the ProteON GLC sensor chip surfaces were activated by amine coupling using 100 mM EDAC and 24 mM sulfo-NHS. RHAMM (30 μg/mL in sodium bicarbonate buffer, pH 9.7) was injected at a flow a rate of 30 μl/min. A buffer sample was injected on a different sensor plate for use as a reference. Ethanolamine HCl (1M, pH 8.5) was then injected to deactivate any remaining surface groups. Peptides (10 μM in PBS-T, 2% DMSO) were injected to a RHAMM functionalized surface at 50 μL/min for 3 minutes followed by a 10 minute dissociation (i.e. injection of PBS-T buffer) period. The surfaces were regenerated using two injections of 30 μL of 1M NaCl prior to the injection of the next peptide. In all experiments, reference subtraction was performed using data obtained from reference plate (No RHAMM) and RHAMM functionalized plate.
A SPR (surface plasmon resonance)-based screening method was utilized for rapid and accurate determination of potential peptide candidates that are able to recognize the HA-binding domain of RHAMM. Seventeen tubulin-derived peptides were screened, and the resulting sensograms were used to deduce peptides which show affinity to RHAMM. Prior to screening, the optimal condition for ligand immobilization, in this instance RHAMM, to the sensor plate was determined. The optimal pH for the immobilization buffer balances the electrostatic attraction of the protein to the sensor plate while minimizing protein deactivation. In this study the optimal pH for immobilization was determined to be the pH that yielded the highest ligand density. RHAMM was coupled to the sensor plate using sodium bicarbonate buffer of varying pH, at a flow rate of 30 μL/min and with fixed concentration of EDAC and sulfo-NHS. The RHAMM ligand density for each pH immobilization condition was determined from the average SPR response of six measurements and the maximum ligand immobilization occurred at pH 9.7 (FIG. 3 A). Ligand immobilization was slightly lower than pH 10.1 due in part to loss of net charge on RHAMM at its isoelectric point.
After immobilization of RHAMM on the SPR sensor chip, injection of a series of tubulin derived peptides was carried out. Association of the peptides with RHAMM proceeded for 3 minutes and the dissociation in analyte free buffer was carried out for 10 minutes. […] For each peptide injection, control sensograms (no immobilized RHAMM and buffer injection) were subtracted from the test sensograms, and the chip surface was regenerated prior to the next peptide injection in order to remove any remaining bound peptides.
For “SEQ ID NO: 3: synthetic αIIIc tubulin CTT peptide containing EEXEEZ motif (SVEAEAEEGEEY)”, the “affinity to RHAMM in SPR screening” value is listed as “enhanced affinity to RHAMM”. On to “SEQ ID NO: 4: synthesized tubulin-derived 12-residue peptide containing DEXEEZ motif (IDSYEDEDEGEE)”, for which the “affinity to RHAMM in SPR screening” value is recorded as “failed the initial screening”. For the compound “SEQ ID NO: 10: synthesized tubulin-derived 12-residue peptide containing EEXEDZ motif (GEFEEEEGEDEA)”, the “affinity to RHAMM in SPR screening” value is reported as “failed the initial screening”.

Consider “SEQ ID NO: 12: synthesized tubulin-derived 12-residue peptide of FIG. 2B (EAFEDEEEEIDG)”, for which the “affinity to RHAMM in SPR screening” value is “enhanced affinity to RHAMM”. For the compound “SEQ ID NO: 2: synthesized tubulin-derived 12-residue peptide containing DEXEEZ motif (DSADGEDEGEEY)”, the “affinity to RHAMM in SPR screening” value was “failed the initial screening”. Still for that read-out and setting: with “SEQ ID NO: 11: synthetic βIV-CTT tubulin peptide containing EEXEEZ motif (GEFEEEAEEEVA-NH2)” the entry was “enhanced affinity to RHAMM”.
